Results on one compound are retold here after US20250170239A1, “CELLULAR REPROGRAMMING BY TARGETING THE GOLGI APPARATUS” (MUSC Foundation for Research Development, priority 2023, published 2025).

The structures appear in SMILES notation. Read-outs that look alike come from different tables or passages of the source.

The test system of experiment [1] is Pmel CD8+ T cells. Conditions: 3 days gp100 and IL2 +/− 0.5 mM GYY4137.
Method: Next, the effect of H2S treatment on the transcriptomic profile of anti-tumor T cells was determined. Pmel CD8+ T cells were activated and expanded in the presence or absence of the H2S donor prior to RNA-sequencing.
Cells were immediately pelleted by centrifugation at 4° C. and resuspended in 1 mL Trizol. RNA concentration was measured using a NanoDrop 8000. RNA quality was assessed using an Agilent 4200 TapeStation and RINe values ranged from 9.7-10. […] Dual-indexed libraries were pooled to and sequenced at VANTAGE (Vanderbilt University Medical Center) on an Illumina NovaSeq 6000 (S4 flow cell) to a depth of approximately 25 million paired-end 150 bp reads per library. Reads were aligned to the mouse mm10 reference genome using STAR (v2.7.1a). Only uniquely mapped reads were retained for further analyses. Quality control metrics were assessed by Picard tool (http://broadinstitute.github.io/picard/). Gencode annotation for mm10 (version M25) was used as reference alignment annotation and downstream quantification. Gene level expression was calculated using featureCounts (v2.0.1). Counts were calculated based on protein-coding genes from the annotation file. Counts were normalized using counts per million reads (CPM). Genes with no reads in either Control or Treated samples were removed. […]
Another experiment concerns human CD19 CAR-T cells. The settings on record: 3 days IL2 +/− 0.5 mM GYY4137.
In another experiment the test system is Jurkat cells. Conditions: 50 mM H2O2 +/− GYY4137; wildtype vs C51A Prdx4. How it is done: (§1) (FIG. 22A) Pmel T cells were activated for 3 days before treatment with vehicle or 50 mM H2O2 for 6 hrs. Prdx4-Golgi colocalization was assessed by PLA using mouse anti-Giantin and rabbit anti-Prdx4 antibodies. (FIG. 22B) Activated Pmel T cells treated with vehicle or 50 mM H2O2 for 6 hrs or 24 hrs with Monensin (1 mM). PLA assay was performed using anti-Giantin and anti-Prdx4 antibodies. (FIG. 22C) Experimental design using Prdx4-targeted siRNA to silence expression of Prdx4 in Pmel T cells. (FIG. 22D) GM130 expression assessed under control versus Monensin (1 μM) conditions in T cells treated with control-siRNA or Prdx4-siRNA. (FIG. 22E) GM130 expression assessed under control versus 50 mM H2O2 conditions in T cells treated with control-siRNA or Prdx4-siRNA+/−0.5 mM GYY4137. (FIG. 22F) Protein translation assessed in Pmel T cells activated+/−GYY4137 and treated with control-siRNA or Prdx4-siRNA. (FIG. 22G) GM130 expression in Pmel T cells treated with vehicle, GYY4137, or Catalase (10 μg/mL). (FIGS. 22H and 22I) Site directed mutagenesis performed to mutate cysteine-54 of the Prdx4 gene. Prdx4-targeted shRNA was used to knock down expression of Prdx4 in Jurkat T cells, followed by transfection with plasmid containing wildtype or mutated Prdx4. (FIG. 22I) GM130 expression assessed after treatment with 50 mM H2O2+/−GYY4137. […]

The test system of experiment [2] is Prdx4-Golgi colocalization. Conditions: 50 mM H2O2 24 hrs. As for the experimental part:
as §1

Experiment [3] relates to Pmel T cells. The settings on record: H2S treated vs control.
Method: Cells were treated+/−H2S for 3 days of activation followed by 3 days of expansion. For analysis of differentially reactive cysteine residues, the sample preparation and analysis were as described by Gottlieb et al. with minor modifications.72 Cells were lysed in freshly made 9 M urea, 50 mM Tris pH 8 buffer with 100 units/mL Universal Nuclease (Thermo Fisher, Pierce cat #88702). To label free thiols, lysis buffer was supplemented with either 55 mM of stable isotope labeled light (I12C2ONH4) or heavy (I13CD213CONH2) iodoacetamide (Sigma, cat #721328) for control or H2S treated cells, respectively. Equal amounts of heavy or light labeled proteins from 3 biological replicates were combined and reducible thiols were reduced with 70 mM dithiothreitol for 45 min at 25° C. […] Two μg aliquots of peptides from each fraction, obtained using ZipTips with 0.6 μL C18 resin (Millipore, Burlington, MA cat #ZTC18S096), were analyzed by LC-MS/MS on an Easy-nLC 1200 coupled to a Orbitrap Fusion Lumos MS (Thermo Scientific, Waltham, MA). […] Ions were detected in the orbitrap. […]
To control for changes in protein expression, an aliquot of each uncombined, labeled protein sample was analyzed using a label free proteomic approach (MaxQuant LFQ). Proteins were digested as above, and peptides were analyzed using an U3000 nano LC system coupled to an Orbitrap Elite MS (Thermo Scientific). […]
For experiment [4], the system named is Pmel CD8+ T cells. The settings on record: for Golgi stress (GM130 expression): TME exhaustion model. The source says: The solid tumor microenvironment is characterized as being highly immunosuppressive, leading to T cell exhaustion. Thus, an in vitro model of TME-induced T cell exhaustion using supernatants collected from B16-F10 murine melanoma cells along with chronic antigen stimulation was used.25 Pmel CD8+ T cells were activated and cultured under optimal culture conditions, with tumor supernatant plus repeated stimulation with gp100, or with tumor supernatant plus repeated stimulation with gp100 plus H2S donor (FIG. 12I). This model was used to determine the impact of T cell exhaustion on Cbs expression and H2S production by gating Pmel T cells on TIM3+PD1+ (terminally exhausted) and TIM3−PD1− cells.
Once the tumors reached a size of approximately 150 mm2, the mice were euthanized and the tumors were removed. The tumors were then processed into single cell suspension using a mouse tumor dissociation kit (Miltenyi, #130-096-730). […] After 5 days of culture without changing the media, the supernatant was removed from the wells and spun down to remove any tumor cells. 3-day activated Pmel T cells were then resuspended in the tumor supernatant along with 0.1 ug/mL of gp100 antigen. To promote chronic antigen stimulation, 0.1 μg/mL gp100 was added every day for 4 days. After 4 days of culture with tumor supernatant and chronic stimulation, the T cells were removed and analyzed for expression of exhaustion markers and functional assays.

In experiment [5] the test system is Pmel CD8+ T cells. Briefly: H2O2-induced oxidative stress and antioxidant capacity in Pmel T cells.
Method: (FIG. 20A) Cells treated for 12-hours with H2O2 (50 mM). FACS analysis quantifying 7-AAD+AnnexinV+ and 7−AAD−AnnexinV− populations (n=3). FIG. 20B, mRNA levels of GCLM and GCLC. (FIG. 20C) Measurements of surface thiols by AlexaFluor-488 C5 Maleimide (n=3) and intracellular glutathione by ThiolTracker Violet (n=4). […] (FIG. 20E) Fold increase in MFI for phosphorylated-PERK, phosphorylated-IRE1a, and ATF4 after 12-hr. incubation with 50 mM H2O2 (n=3). FIG. 20F, FACS quantification of cells expressing high phosphorylated-PERK levels after exhaustion assay (n=2). (FIG. 20G) Percentage of cells expressing high phosphorylated-PERK in Pmel cells overexpressing Cbs compared to Pmel cells transduced with control lentivirus (n=3). (FIG. 20H) Fold change in GM130 MFI in Pmel cells using exhaustion assay (n=3). (FIG. 20I) Cell viability and mitochondrial ROS following monensin treatment (1 mM). […] (FIG. 20K) GM130 MFI values in Pmel T cells overexpressing Cbs compared to control cells after transfer into tumor-bearing mice and TIL isolation after 7 days (n=4). (FIG. 20L) Pmel T cells cultured with B16-F10 supernatant and gp100, followed by FACS sorting for PD1+TIM3+ and PD1−TIM3− cells. Sorted cells stained with anti-Giantin antibody and analyzed for Golgi area via ImageStream. (FIG. 20M) FACS analysis of GM130 expression in PD1+TIM3+ and PD1−TIM3− populations. (FIG. 20N) Pmel cells treated with 1 mM monensin and analyzed for intracellular ROS (DCFDA). (FIG. 20O) FACS analysis of GM130 expression in Pmel cells treated with 50 mM H2O2 (6-hours). Data represent mean±SEM. Analyzed by two-sided Student's t-test or one-way ANOVA. ns, p-value >0.05; p-value *≤0.05; **≤0.01; ***≤0.001; ****≤0.0001.
The subject of experiment [6] is Pmel T cells. Briefly: Golgi stress (monensin, H2O2, thapsigargin) in Pmel T cells: GM130, ROS, Golgi dispersion. The format is cell-based, mouse. Set-up: cell death / mitochondrial ROS / monensin-induced cell death and mitochondrial ROS accumulation / ER stress (p-PERK): dose or concentration left out as unconfirmed. As for the experimental part:
(FIG. 21A) Levels of intracellular glutathione assessed using FACS by employing ThiolTracker Violet dye in control CD19 CAR-T cells or CAR-T cells overexpressing Cbs (CbstdCD19-CAR-T) (n=3). (FIG. 21B) 12 hour Thapsigargin (700 nM) treatment was used to induce ER stress in WT T cells, Cbs-KO T cells, and Cbs-KO T cells+H2S. Levels of phosphorylated PERK were assessed by FACS (n=3). (FIG. 21C) Pmel T cells were treated with either Thapsigargin (700 nM) or Monensin (1 mM) for 12 hours, followed by staining for phosphorylated PERK (p-PERK) and GM130 to assess ER stress and Golgi stress, respectively (n=4). (FIG. 21D) Activated Pmel T cells were treated for 12 hours with either vehicle control or 1 mM Monensin (“+Golgi stress”) before being stained for giantin to assess Golgi dispersion. […] (FIG. 21E) Representative confocal microscopy images of mitochondria (Tom20) and Golgi (giantin) in human PBMCs treated with vehicle control or 0.5 mM GYY4137.
T cells were stained with conjugated for surface markers as described in the figure legends followed by fixation and permeabilization with BD Cytofix/Cytoperm Kit (BD Biosciences, 554722). The Golgi was labeled using anti-Giantin antibody (Abcam, ab80864) as the primary antibody followed by secondary antibody staining with anti-Rabbit IgG conjugated to Alexa Fluor 488 (ab150077). The cells were then imaged using ImageStreamX mark II imaging flow-cytometer and analyzed using IDEAS 6.2. Spectral overlap was compensated for using single-stain controls. Image analysis for Golgi area was performed using the protocol established by Eisenberg-Lerner et al.44 First, cells were gated on single cells using the area and aspect ratio features, and then gated on focused cells using the Gradient RMS feature. Golgi area was calculated using the anti-Giantin fluorescence signaling, using on the Threshold_50 mask that includes the 50% highest intensity pixels of the Golgi staining, with a mask defined as Area Threshold 50 was considered as the Golgi area to compare between the relevant conditions.

Where [7] appears, read: tumor supernatant + repeated gp100 +/− 0.5 mM GYY4137.

Method for human CD19 CAR-T cells: Quantification of oxygen consumption rate (OCR), spare respiratory capacity (SRC), maximal respiration, and basal respiration (n=10 experimental replicates representative of 3 separate experiments). […] Shown is the quantification of mean oxygen consumption rate (OCR), spare respiratory capacity (SRC), maximal respiration, and basal respiration. Data shown represent the mean±SEM and were analyzed by two-sided Student's t-test or one-way ANOVA. ns, p-value >0.05; p-value *≤0.05; **≤0.01; ***≤0.001; ****≤0.0001.
Oxygen consumption rate (OCR) and extracellular acidification rate (ECAR) were determined using the Seahorse Xfe96 analyzer (Agilent Technologies, Santa Clara, CA). Briefly, T cells (0.5×10^6/well) were plated on a Cell-Tak coated Seahorse culture plate for 30 min. OCR, a measure of OXPHOS, was analyzed under basal condition, or in response to 1.0 μM oligomycin, 1.0 μM fluoro-carbonyl cyanide phenylhydrazone (FCCP) and 2 μM rotenone, plus 100 nM antimycin A. ECAR, a measure of glycolysis, was measured under basal conditions and in response to glucose (5.5 mM), Oligomycin (1.0 μM), and 2-deoxyglucose (2-DG) (100 mM). All reagents were purchased from Sigma-Aldrich, St. Louis, MO.

As for `C1COCCN1.COc1ccc(P(=S)(S)N2CCOCC2)cc1` (stereo not shown) [GYY4137], in the experiment on Pmel CD8+ T cells [1], the significantly upregulated pathways entry is “pathways related to immune receptor activity, T cell signaling, and cytokine activity”; the “transcriptomic profile (PCA)” value was “distinct transcriptomic profile”. Also, in the experiment with human CD19 CAR-T cells, the SRC entry was “significant increase” and the maximal respiration entry is reported as “significant increase”. Also, the “protective effect on H2O2-induced Golgi stress (GM130)” value with Jurkat cells was “only observed in Jurkat cells expressing wildtype Prdx4”. Also, in experiment [2], the “loss of Prdx4 localization within the Golgi under prolonged oxidative stress” value is “loss of colocalization was mitigated”. In the experiment on Pmel T cells [3], the “free thiols / abundance of ER proteins Prdx4, Ero1, MANF1, Rp17a” value is “enhanced abundance or an increase in the extent of free thiols” and the “free thiols at cysteine 54 in Prdx4” value was “increase in free thiols at cysteine 54 in Prdx4”. Besides, the “Golgi stress (GM130 expression)” value in the experiment on Pmel CD8+ T cells [4] was “reverted”. Moreover, in the experiment on Pmel CD8+ T cells [4] (listed as H2S donor), the “Golgi stress (GM130 expression)” value is recorded as “decrease in GM130 expression was mitigated”. Also, the “ER stress (high phosphorylated-PERK)” value with Pmel CD8+ T cells [4] (in vitro TME exhaustion model) was “mitigated”. Also, in the experiment with Pmel CD8+ T cells [4] (setting [7]), the Tcm phenotype entry was “preserve the Tcm phenotype”; the “expression of exhaustion markers PD1, TIM3, Lag3, CD38” value was “decreased expression of T cell exhaustion markers PD1, TIM3, Lag3, and CD38”. Further, the “apoptotic cell death (7-AAD, AnnexinV)” value in the experiment with Pmel CD8+ T cells [5] (12-hours H2O2 (50 mM), +/− 0.5 mM GYY4137) is given as “significant decrease in apoptotic cell death”. For the same compound, the “expression of GCLC and GCLM (mRNA)” value in the experiment with Pmel CD8+ T cells [5] (+/− 0.5 mM GYY4137) is recorded as “increased expression”. For the same compound, in the experiment on Pmel CD8+ T cells [5] (ThiolTracker Violet), the “intracellular glutathione (iGSH)” value is “increase”. Further, in the experiment with Pmel T cells [6] (1 mM monensin with H2S treatment), the “monensin-induced ROS (DCFDA)” value was “mitigated”. Moreover, the “H2O2-mediated changes in Golgi stress (GM130 levels)” value in the experiment on Pmel T cells [6] (50 mM H2O2 (6-hours)) is “mitigated”. Besides, the “monensin-induced cell death and mitochondrial ROS accumulation” value with Pmel T cells [6] (monensin in presence of H2S) is on record as “partially mitigated”.
